Assay results taken from article PMC9030254, “Target Hopping from Protein Kinases to PXR: Identification of Small-Molecule Protein Kinase Inhibitors as Selective Modulators of Pregnane X Receptor from TüKIC Library” (Cells, 2022).

What was measured:
Assay in all cases: Kinase profiling
Format in all cases: biochemical
CDK5/p35NCK = molecular target: T1, CDK5/p35NCK (Homo sapiens, UniProt Q00535)
T1 construct: purchased ProQinase (Freiburg, Germany)
Description: (§1) The analysis was performed by ProQinase (Freiburg, Germany).

SGK3 = molecular target: T2, SGK3 (Homo sapiens, UniProt Q96BR1)
T2 construct: purchased ProQinase (Freiburg, Germany)
T2 sequence (Q96BR1 1-496): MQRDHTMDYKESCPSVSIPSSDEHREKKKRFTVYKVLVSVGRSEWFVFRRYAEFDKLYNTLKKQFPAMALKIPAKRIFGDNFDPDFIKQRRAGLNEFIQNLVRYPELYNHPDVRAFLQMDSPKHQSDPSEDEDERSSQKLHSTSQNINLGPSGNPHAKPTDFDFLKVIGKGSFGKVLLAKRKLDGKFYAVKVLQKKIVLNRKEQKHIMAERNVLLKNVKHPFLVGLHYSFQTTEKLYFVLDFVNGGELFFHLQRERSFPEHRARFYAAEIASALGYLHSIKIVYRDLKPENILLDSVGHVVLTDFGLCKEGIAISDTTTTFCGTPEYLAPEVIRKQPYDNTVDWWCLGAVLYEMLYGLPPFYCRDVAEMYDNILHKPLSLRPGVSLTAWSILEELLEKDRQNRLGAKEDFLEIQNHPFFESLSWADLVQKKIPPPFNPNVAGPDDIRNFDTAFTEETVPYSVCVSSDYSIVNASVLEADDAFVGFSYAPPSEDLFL
Description: as §1

VEGFR2 = molecular target: T3, VEGFR2 (Homo sapiens, UniProt P35968)
T3 construct: purchased ProQinase (Freiburg, Germany)
Description: as §1

IGF1R = molecular target: T4, IGF1R (Homo sapiens, UniProt P08069)
T4 construct: purchased ProQinase (Freiburg, Germany)
T4 sequence (P08069 31-1367): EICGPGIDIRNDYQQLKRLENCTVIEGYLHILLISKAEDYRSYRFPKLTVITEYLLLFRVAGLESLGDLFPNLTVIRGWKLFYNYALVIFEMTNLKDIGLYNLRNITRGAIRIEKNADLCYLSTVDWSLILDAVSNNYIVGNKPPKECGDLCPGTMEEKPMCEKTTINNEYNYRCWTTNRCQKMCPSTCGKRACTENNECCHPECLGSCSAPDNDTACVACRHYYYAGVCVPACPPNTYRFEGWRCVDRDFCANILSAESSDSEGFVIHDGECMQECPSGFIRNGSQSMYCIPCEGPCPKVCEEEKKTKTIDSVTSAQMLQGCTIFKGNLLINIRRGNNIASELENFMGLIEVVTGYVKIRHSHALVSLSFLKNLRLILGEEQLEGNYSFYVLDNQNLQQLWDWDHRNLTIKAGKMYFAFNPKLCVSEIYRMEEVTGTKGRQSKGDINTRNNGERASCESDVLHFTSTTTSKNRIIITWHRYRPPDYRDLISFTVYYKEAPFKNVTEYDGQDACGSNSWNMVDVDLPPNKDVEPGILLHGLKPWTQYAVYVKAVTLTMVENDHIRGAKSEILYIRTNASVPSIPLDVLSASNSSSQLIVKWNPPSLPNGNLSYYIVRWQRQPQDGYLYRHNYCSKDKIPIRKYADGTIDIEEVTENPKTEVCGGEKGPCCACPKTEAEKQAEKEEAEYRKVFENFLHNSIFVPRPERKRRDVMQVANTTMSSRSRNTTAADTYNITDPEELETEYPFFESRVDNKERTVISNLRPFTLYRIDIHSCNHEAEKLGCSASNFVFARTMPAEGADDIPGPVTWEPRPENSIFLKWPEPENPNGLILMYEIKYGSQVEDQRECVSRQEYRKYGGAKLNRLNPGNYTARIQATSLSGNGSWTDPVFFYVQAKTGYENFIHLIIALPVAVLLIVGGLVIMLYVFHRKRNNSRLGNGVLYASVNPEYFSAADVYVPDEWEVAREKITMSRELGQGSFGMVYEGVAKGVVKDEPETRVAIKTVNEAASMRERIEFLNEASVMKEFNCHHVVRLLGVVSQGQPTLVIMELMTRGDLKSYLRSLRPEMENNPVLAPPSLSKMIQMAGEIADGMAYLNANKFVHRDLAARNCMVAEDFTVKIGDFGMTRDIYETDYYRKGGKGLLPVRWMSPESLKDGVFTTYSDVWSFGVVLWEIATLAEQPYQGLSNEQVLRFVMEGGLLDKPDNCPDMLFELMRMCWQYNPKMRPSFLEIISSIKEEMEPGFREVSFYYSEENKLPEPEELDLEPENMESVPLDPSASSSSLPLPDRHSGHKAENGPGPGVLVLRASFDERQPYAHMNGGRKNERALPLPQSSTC
Description: as §1

CSF1R = molecular target: T5, CSF1R (Homo sapiens, UniProt P07333)
T5 construct: purchased ProQinase (Freiburg, Germany)
T5 sequence (P07333 20-972): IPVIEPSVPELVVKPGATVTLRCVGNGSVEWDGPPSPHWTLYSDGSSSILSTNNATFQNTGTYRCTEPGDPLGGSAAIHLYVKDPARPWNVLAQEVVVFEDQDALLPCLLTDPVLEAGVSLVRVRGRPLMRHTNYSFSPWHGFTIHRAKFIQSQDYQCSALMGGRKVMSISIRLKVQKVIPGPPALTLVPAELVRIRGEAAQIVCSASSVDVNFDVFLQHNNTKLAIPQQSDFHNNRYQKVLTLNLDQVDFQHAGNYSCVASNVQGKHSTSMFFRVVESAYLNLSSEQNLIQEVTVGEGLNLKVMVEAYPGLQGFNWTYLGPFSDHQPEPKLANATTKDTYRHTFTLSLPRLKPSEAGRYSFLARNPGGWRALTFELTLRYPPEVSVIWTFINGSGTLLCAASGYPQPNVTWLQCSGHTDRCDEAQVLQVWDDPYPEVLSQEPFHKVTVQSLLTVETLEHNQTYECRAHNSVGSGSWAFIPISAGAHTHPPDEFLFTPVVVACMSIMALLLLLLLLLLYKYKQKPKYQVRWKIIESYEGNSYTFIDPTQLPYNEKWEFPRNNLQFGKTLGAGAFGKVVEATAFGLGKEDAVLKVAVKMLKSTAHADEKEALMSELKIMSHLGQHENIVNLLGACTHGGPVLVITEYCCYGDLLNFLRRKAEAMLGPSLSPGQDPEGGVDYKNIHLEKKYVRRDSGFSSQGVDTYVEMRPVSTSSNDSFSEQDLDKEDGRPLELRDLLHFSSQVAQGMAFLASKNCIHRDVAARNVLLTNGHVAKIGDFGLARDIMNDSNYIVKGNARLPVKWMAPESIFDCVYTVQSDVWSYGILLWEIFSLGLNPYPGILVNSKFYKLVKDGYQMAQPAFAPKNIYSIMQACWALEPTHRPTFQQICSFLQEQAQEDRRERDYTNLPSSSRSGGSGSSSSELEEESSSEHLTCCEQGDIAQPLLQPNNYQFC
Description: as §1

EPHB3 = molecular target: T6, EPHB3 (Homo sapiens, UniProt P54753)
T6 construct: purchased ProQinase (Freiburg, Germany)
T6 sequence (P54753 34-998): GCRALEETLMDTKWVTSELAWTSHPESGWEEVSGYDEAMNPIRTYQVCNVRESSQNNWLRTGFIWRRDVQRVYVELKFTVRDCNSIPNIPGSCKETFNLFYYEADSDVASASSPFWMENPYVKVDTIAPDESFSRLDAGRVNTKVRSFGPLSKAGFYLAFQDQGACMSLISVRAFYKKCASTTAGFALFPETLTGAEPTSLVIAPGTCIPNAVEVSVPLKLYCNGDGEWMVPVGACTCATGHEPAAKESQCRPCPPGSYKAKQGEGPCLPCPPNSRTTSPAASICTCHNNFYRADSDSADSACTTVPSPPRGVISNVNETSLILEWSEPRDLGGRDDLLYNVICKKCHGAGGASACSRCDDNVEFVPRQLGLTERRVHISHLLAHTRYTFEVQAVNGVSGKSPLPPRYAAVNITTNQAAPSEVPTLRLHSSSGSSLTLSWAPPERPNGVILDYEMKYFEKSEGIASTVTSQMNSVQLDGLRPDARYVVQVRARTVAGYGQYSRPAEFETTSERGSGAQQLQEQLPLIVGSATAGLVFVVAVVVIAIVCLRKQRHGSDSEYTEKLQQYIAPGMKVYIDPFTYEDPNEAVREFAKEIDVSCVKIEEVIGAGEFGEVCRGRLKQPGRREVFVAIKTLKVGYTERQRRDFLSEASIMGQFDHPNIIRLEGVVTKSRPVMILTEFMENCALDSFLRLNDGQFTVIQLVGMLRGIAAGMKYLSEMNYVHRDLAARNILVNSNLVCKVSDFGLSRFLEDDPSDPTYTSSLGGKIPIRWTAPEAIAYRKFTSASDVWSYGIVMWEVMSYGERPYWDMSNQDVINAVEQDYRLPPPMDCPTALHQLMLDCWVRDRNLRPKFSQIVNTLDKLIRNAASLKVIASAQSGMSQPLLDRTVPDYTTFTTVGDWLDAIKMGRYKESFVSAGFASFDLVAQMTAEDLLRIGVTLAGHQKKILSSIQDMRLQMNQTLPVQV
Description: as §1

BRAF = molecular target: T7, BRAF (Homo sapiens, UniProt P15056)
T7 construct: purchased ProQinase (Freiburg, Germany)
T7 sequence (P15056 whole entry): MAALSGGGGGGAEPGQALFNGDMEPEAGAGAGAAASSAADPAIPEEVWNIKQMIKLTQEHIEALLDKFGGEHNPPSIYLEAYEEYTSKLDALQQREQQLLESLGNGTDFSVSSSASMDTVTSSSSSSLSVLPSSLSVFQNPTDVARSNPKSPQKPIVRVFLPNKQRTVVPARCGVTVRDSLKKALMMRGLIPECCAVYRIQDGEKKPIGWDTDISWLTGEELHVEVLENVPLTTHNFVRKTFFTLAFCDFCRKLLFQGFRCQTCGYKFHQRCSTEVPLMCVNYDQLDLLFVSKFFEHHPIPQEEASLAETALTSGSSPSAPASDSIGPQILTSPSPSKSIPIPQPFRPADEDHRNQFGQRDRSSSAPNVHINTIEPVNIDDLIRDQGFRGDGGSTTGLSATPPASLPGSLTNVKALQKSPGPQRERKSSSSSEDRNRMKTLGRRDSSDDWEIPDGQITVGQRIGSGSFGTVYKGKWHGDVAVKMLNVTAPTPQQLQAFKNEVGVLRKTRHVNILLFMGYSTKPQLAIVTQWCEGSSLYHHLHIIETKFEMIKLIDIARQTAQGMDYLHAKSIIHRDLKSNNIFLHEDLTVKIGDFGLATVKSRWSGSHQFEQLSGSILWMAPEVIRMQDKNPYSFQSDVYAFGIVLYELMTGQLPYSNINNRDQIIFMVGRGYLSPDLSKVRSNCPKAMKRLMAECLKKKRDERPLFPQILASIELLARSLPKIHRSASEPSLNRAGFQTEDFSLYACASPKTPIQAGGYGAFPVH
Description: as §1

TRKA = molecular target: T8, TRKA (Homo sapiens, UniProt P04629)
T8 construct: purchased ProQinase (Freiburg, Germany)
T8 sequence (P04629 33-796): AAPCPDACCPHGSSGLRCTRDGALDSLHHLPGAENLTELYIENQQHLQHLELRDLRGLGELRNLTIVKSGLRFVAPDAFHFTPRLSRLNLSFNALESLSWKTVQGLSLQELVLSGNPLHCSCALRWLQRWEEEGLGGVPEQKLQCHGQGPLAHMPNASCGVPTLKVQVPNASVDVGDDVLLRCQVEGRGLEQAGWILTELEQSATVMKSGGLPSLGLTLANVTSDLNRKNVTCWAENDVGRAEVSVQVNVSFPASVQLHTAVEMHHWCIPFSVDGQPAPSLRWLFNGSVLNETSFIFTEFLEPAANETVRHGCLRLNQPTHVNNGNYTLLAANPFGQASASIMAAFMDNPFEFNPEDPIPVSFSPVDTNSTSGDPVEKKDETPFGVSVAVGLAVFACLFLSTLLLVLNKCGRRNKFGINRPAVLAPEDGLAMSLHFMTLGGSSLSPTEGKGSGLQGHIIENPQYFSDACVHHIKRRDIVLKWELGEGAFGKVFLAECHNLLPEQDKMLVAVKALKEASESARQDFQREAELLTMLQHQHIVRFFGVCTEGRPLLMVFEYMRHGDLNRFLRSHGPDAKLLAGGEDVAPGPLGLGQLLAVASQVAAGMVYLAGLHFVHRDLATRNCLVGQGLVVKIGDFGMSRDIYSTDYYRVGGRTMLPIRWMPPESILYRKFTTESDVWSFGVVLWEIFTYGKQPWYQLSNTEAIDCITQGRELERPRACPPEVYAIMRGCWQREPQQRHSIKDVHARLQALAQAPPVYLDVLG
Description: as §1

PKCepsilon = molecular target: T9, PKCepsilon (Homo sapiens, UniProt Q02156)
T9 construct: purchased ProQinase (Freiburg, Germany)
T9 sequence (Q02156 1-737): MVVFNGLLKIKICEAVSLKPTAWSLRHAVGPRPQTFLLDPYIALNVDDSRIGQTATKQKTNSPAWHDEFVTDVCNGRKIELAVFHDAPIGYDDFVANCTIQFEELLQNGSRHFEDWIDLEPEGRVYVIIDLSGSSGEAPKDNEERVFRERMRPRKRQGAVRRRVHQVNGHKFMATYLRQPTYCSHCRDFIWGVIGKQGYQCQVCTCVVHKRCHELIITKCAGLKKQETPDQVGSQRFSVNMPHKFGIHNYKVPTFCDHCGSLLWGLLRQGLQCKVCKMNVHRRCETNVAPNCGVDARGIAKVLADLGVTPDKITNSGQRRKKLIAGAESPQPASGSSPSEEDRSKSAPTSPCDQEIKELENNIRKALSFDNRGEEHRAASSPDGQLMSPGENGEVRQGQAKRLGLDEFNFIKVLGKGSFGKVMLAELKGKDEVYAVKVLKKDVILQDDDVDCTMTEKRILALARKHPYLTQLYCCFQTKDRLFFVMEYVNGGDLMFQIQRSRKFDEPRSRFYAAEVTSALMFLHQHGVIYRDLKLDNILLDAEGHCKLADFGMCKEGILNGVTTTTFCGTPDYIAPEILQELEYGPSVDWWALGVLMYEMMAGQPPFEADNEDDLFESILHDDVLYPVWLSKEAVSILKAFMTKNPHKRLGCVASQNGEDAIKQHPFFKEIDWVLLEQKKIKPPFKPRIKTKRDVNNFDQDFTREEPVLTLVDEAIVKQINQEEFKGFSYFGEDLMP
Description: as §1

INSRR = molecular target: T10, INSRR (Homo sapiens, UniProt P14616)
T10 construct: purchased ProQinase (Freiburg, Germany)
Description: as §1

T1 sequence (Q00535 whole entry): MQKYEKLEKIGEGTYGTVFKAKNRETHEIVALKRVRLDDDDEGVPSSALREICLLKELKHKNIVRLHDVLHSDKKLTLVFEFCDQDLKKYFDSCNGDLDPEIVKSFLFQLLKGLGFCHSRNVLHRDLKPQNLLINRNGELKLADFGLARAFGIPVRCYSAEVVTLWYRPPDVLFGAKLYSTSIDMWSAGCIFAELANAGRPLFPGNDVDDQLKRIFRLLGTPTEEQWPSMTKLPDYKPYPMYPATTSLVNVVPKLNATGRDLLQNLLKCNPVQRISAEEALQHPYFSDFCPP
T1 sequence (Q15078 whole entry partner): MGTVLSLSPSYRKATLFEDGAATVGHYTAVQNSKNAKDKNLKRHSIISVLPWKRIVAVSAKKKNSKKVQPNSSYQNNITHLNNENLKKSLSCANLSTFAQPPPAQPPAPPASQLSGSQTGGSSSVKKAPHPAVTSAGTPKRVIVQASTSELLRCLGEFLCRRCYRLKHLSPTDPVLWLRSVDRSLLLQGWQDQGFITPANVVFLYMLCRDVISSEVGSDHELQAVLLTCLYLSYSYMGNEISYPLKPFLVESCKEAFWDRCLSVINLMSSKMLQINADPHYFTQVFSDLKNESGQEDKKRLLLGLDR

With O=C(Nc1ccc(F)c(Nc2ccc3c(c2)CCCCC3=O)c1)c1cccc(F)c1 [Compound 109] the Residual activity (CDK5/p35NCK; 1.0E-05 M) was 101 % of control, the Residual activity (CDK5/p35NCK; 1.0E-06 M) was 95 % of control and the Residual activity (SGK3; 1.0E-05 M) was 97 % of control. The Residual activity (SGK3; 1.0E-06 M) was 96 % of control, the Residual activity (VEGFR2; 1.0E-05 M) was 79 % of control and the Residual activity (VEGFR2; 1.0E-06 M) was 84 % of control. The Residual activity (IGF1R; 1.0E-05 M) was 80 % of control, the Residual activity (IGF1R; 1.0E-06 M) was 104 % of control and the Residual activity (CSF1R; 1.0E-05 M) was 94 % of control. For the same compound, the Residual activity (CSF1R; 1.0E-06 M) was 103 % of control, the Residual activity (EPHB3; 1.0E-05 M) was 85 % of control and the Residual activity (EPHB3; 1.0E-06 M) was 100 % of control. The inhibition at 10 µM (BRAF) was at least 50%, the Residual activity (BRAF; 1.0E-05 M) was 39 % of control and the Residual activity (BRAF; 1.0E-06 M) was 67 % of control. The Residual activity (TRKA; 1.0E-05 M) was 97 % of control, the Residual activity (TRKA; 1.0E-06 M) was 101 % of control and the Residual activity (PKCepsilon; 1.0E-05 M) was 103 % of control. The Residual activity (PKCepsilon; 1.0E-06 M) was 104 % of control, the Residual activity (INSRR; 1.0E-05 M) was 83 % of control and the Residual activity (INSRR; 1.0E-06 M) was 92 % of control.
In the case of O=C(Cc1ccccc1)Nc1ccc(F)c(Nc2ccc3c(c2)CCCCC3=O)c1 [Compound 100], the Residual activity (CDK5/p35NCK; 1.0E-05 M) is reported as 93 % of control, the Residual activity (CDK5/p35NCK; 1.0E-06 M) is reported as 105 % of control and the Residual activity (SGK3; 1.0E-05 M) is reported as 98 % of control. The Residual activity (SGK3; 1.0E-06 M) was 103 % of control, the Residual activity (VEGFR2; 1.0E-05 M) was 77 % of control and the Residual activity (VEGFR2; 1.0E-06 M) was 98 % of control. For the same compound, the Residual activity (IGF1R; 1.0E-05 M) was 101 % of control, the Residual activity (IGF1R; 1.0E-06 M) was 97 % of control and the Residual activity (CSF1R; 1.0E-05 M) was 96 % of control. The Residual activity (CSF1R; 1.0E-06 M) was 100 % of control, the Residual activity (EPHB3; 1.0E-05 M) was 69 % of control and the Residual activity (EPHB3; 1.0E-06 M) was 100 % of control. For the same compound, the inhibition at 10 µM (BRAF) was at least 50%, the Residual activity (BRAF; 1.0E-05 M) was 25 % of control and the Residual activity (BRAF; 1.0E-06 M) was 58 % of control. For the same compound, the Residual activity (TRKA; 1.0E-05 M) was 94 % of control, the Residual activity (TRKA; 1.0E-06 M) was 107 % of control and the Residual activity (PKCepsilon; 1.0E-05 M) was 107 % of control. The Residual activity (PKCepsilon; 1.0E-06 M) was 107 % of control, the Residual activity (INSRR; 1.0E-05 M) was 90 % of control and the Residual activity (INSRR; 1.0E-06 M) was 92 % of control.
